# Biological target: Factor D (Homo sapiens (Human), UniProt P00746)
# Test: Factor D esterolytic assay (Z-Lys-SBzl substrate, DTNB, 405 nm)
# Assay type: biochemical
# Details: Z-Lys-SBzl 1.29 mM, pH 7.5, 10% DMSO, tested a minimum of three times, read-out: Measured Ki (IC50) Value for Compounds: IC50
# Procedure, shortened: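 Human Factor D ([…]) with 1.29 mM Z-Lys-SBzl in 100 mM HEPES, 500 mM NaCl, pH 7.5, 10% DMSO; substrate added immediately or after room-temperature preincubation. Released thiol reacted with DTNB, rate followed at 405 nm for 600 sec, 690 nm background subtracted. IC50 from percent inhibition versus uninhibited rate, n≥3.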
# Sequence of Factor D (P00746 26-253): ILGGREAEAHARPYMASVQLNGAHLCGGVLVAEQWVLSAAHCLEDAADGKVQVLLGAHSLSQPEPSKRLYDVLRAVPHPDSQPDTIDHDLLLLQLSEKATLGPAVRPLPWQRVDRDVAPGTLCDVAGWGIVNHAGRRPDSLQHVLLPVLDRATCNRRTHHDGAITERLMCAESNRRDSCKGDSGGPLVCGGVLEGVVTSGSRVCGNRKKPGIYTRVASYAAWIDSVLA
row,IC50,Structure (SMILES)
1,< 1000 nM,"NCc1cccc(-c2cc(COc3cccc(C(F)(F)F)c3CC(=O)O)cc3ccoc23)c1 [Compound 282f, 2-(2-((7-(3-(aminomethyl)phenyl)benzofuran-5-yl)methoxy)-6-(trifluoromethyl)phenyl)acetic acid]"
2,< 1000 nM,"Cc1cc(CC(=O)O)c(OCc2cc(-c3cccc(CN)c3)c3occc3c2)c2c1CCC2 [Compound 286g, 2-(4-((7-(3-(aminomethyl)phenyl)benzofuran-5-yl)methoxy)-7-methyl-2,3-dihydro-1H-inden-5-yl)acetic acid]"
3,< 1000 nM,"NCc1cccc(-c2cc(COc3cc(C(F)(F)F)ccc3CC(=O)O)cc3ccoc23)c1 [Compound 288f, 2-(2-((7-(3-(aminomethyl)phenyl)benzofuran-5-yl)methoxy)-4-(trifluoromethyl)phenyl)acetic acid]"
4,< 1000 nM,"NCc1cccc(-c2cc(COc3c(CC(=O)O)ccc4occc34)cc3ccoc23)c1 [Compound 291g, 2-(4-((7-(3-(aminomethyl)phenyl)benzofuran-5-yl)methoxy)benzofuran-5-yl)acetic acid]"
5,< 1000 nM,"Cc1ccc(CC(=O)O)c(OCc2cc(-c3cccc(CN)c3)c3occc3c2)c1C [Compound 292f, 2-(2-((7-(3-(aminomethyl)phenyl)benzofuran-5-yl)methoxy)-3,4-dimethylphenyl)acetic acid]"
6,< 1000 nM,"NCc1cccc(-c2cc(COc3ccccc3C(=O)O)cc3ccoc23)c1 [Compound 293c, 2-((7-(3-(aminomethyl)phenyl)benzofuran-5-yl)methoxy)benzoic acid]"
7,< 1000 nM,"NCc1cccc(-c2cc(COc3cc4occc4cc3CC(=O)O)cc3ccoc23)c1 [Compound 298f, 2-(6-((7-(3-(aminomethyl)phenyl)benzofuran-5-yl)methoxy)benzofuran-5-yl)acetic acid]"
8,< 1000 nM,"Cc1ccc(CC(=O)O)c(OCc2cc(-c3cccc(CN)c3)c3oc(F)cc3c2)c1 [Compound 299c, 2-(2-((7-(3-(aminomethyl)phenyl)-2-fluorobenzofuran-5-yl)methoxy)-4-methylphenyl)acetic acid]"
9,< 1000 nM,"COc1ccc(CC(=O)O)c(OCc2cc(-c3cccc(CN)c3)c3occc3c2)c1 [Compound 303g, 2-(2-((7-(3-(aminomethyl)phenyl)benzofuran-5-yl)methoxy)-4-methoxyphenyl)acetic acid]"

# Continued, molecule first:
row,Structure (SMILES),IC50
1,"COc1cncc(NCc2cc3cc(COc4ccccc4CC(=O)O)cc(-c4cccc(CN)c4)c3o2)c1 [Compound 279c, 2-(2-((7-(3-(aminomethyl)phenyl)-2-(((5-methoxypyridin-3-yl)amino)methyl)benzofuran-5-yl)methoxy)phenyl)acetic acid]",< 1000 nM
2,"COc1ccc(NCc2cc3cc(COc4ccccc4CC(=O)O)cc(-c4cccc(CN)c4)c3o2)cc1 [Compound 280c, 2-(2-((7-(3-(aminomethyl)phenyl)-2-(((4-methoxyphenyl)amino)methyl)benzofuran-5-yl)methoxy)phenyl)acetic acid]",< 1000 nM
3,"NCc1cccc(-c2cc(COc3ccccc3CC(=O)O)cc3cc(CNCc4cccnc4)oc23)c1 [Compound 281c, 2-(2-((7-(3-(aminomethyl)phenyl)-2-(((pyridin-3-ylmethyl)amino)methyl)benzofuran-5-yl)methoxy)phenyl)acetic acid]",< 1000 nM
4,"NCc1cccc(-c2cc(COc3ccccc3CC(=O)O)cc3cc(CNCc4ccccc4)oc23)c1 [Compound 283c, 2-(2-((7-(3-(aminomethyl)phenyl)-2-((benzylamino)methyl)benzofuran-5-yl)methoxy)phenyl)acetic acid]",< 1000 nM
5,"NCc1cccc(-c2cc(COc3ccccc3CC(=O)O)cc3cc(COCc4ccccc4)oc23)c1 [Compound 284f, 2-(2-((7-(3-(aminomethyl)phenyl)-2-((benzyloxy)methyl)benzofuran-5-yl)methoxy)phenyl)acetic acid]",< 1000 nM
6,"NCc1cccc(-c2cc(COc3ccccc3CC(=O)O)cc3cccnc23)c1 [Compound 285e, 2-(2-((8-(3-(aminomethyl)phenyl)quinolin-6-yl)methoxy)phenyl)acetic acid]",< 1000 nM
7,"CN(Cc1ccccc1)Cc1cc2cc(COc3ccccc3CC(=O)O)cc(-c3cccc(CN)c3)c2o1 [Compound 287c, 2-(2-((7-(3-(aminomethyl)phenyl)-2-((benzyl(methyl)amino)methyl)benzofuran-5-yl)methoxy)phenyl)acetic acid]",< 1000 nM
8,"CNC(=O)c1cc2cc(COc3ccccc3CC(=O)O)cc(-c3cccc(CN)c3)c2o1 [Compound 289d, 2-(2-((7-(3-(aminomethyl)phenyl)-2-(methylcarbamoyl)benzofuran-5-yl)methoxy)phenyl)acetic acid]",< 1000 nM
9,"NCc1cccc(-c2cc(COc3ccccc3CC(=O)O)cc3cc(C(=O)NCc4ccccc4)oc23)c1 [Compound 290c, 2-(2-((7-(3-(aminomethyl)phenyl)-2-(benzylcarbamoyl)benzofuran-5-yl)methoxy)phenyl)acetic acid]",< 1000 nM
10,"NCc1cccc(-c2cc(COc3ccccc3CC(=O)O)cc3cc(CNC(=O)c4ccccc4)oc23)c1 [Compound 294f, 2-(2-((7-(3-(aminomethyl)phenyl)-2-(benzamidomethyl)benzofuran-5-yl)methoxy)phenyl)acetic acid]",< 1000 nM
11,"N#Cc1cccc(C(=O)NCc2cc3cc(COc4ccccc4CC(=O)O)cc(-c4cccc(CN)c4)c3o2)c1 [Compound 295c, 2-(2-((7-(3-(aminomethyl)phenyl)-2-((3-cyanobenzamido)methyl)benzofuran-5-yl)methoxy)phenyl)acetic acid]",< 1000 nM
12,"NCc1cccc(-c2cc(COc3ccccc3CC(=O)O)cc3cc(CNC(=O)Cc4ccccc4)oc23)c1 [Compound 296c, 2-(2-((7-(3-(aminomethyl)phenyl)-2-((2-phenylacetamido)methyl)benzofuran-5-yl)methoxy)phenyl)acetic acid]",< 1000 nM
13,"NCc1cccc(-c2cc(COc3ccccc3CC(=O)O)cc3cc(CNC(=O)c4ccc(F)cc4F)oc23)c1 [Compound 297c, 2-(2-((7-(3-(aminomethyl)phenyl)-2-((2,4-difluorobenzamido)methyl)benzofuran-5-yl)methoxy)phenyl)acetic acid]",< 1000 nM
14,"NCc1nccc(-c2cc(COc3ccccc3CC(=O)O)cc3cc(F)oc23)c1F [Compound 300c, 2-(2-((7-(2-(aminomethyl)-3-fluoropyridin-4-yl)-2-fluorobenzofuran-5-yl)methoxy)phenyl)acetic acid]",< 1000 nM
15,"NCc1cc(-c2cc(COc3ccccc3CC(=O)O)cc3cc(F)oc23)ccn1 [Compound 301b, 2-(2-((7-(2-(aminomethyl)pyridin-4-yl)-2-fluorobenzofuran-5-yl)methoxy)phenyl)acetic acid]",< 1000 nM
16,"NCc1cccc(-c2cc(COc3ccccc3CC(=O)O)cc3cc(COCc4cccnc4)oc23)c1 [Compound 302f, 2-(2-((7-(3-(aminomethyl)phenyl)-2-((pyridin-3-ylmethoxy)methyl)benzofuran-5-yl)methoxy)phenyl)acetic acid]",< 1000 nM
17,"Cc1ccc(CC(=O)O)c(OCc2cc(-c3cccc(CN)c3F)c3occc3c2)c1C [Compound 304b, 2-(2-((7-(3-(aminomethyl)-2-fluorophenyl)benzofuran-5-yl)methoxy)-3,4-dimethylphenyl)acetic acid]",< 1000 nM

# — patent publication US11370774B2, “Substituted benzofuran, benzopyrrole, benzothiophene, and structurally related complement inhibitors” (BioCryst Pharmaceuticals, Inc., priority 2018, dated 2022)
